# Source: patent US10392412B2, “Platinum anticancer agents” (THE REGENTS OF THE UNIVERSITY OF CALIFORNIA, priority 2015, dated 2019)
# Like-named read-outs stand apart in the source and are kept apart here.
# Tests used:
# SNF539 cells = assay: Cytotoxicity CellTiter-Glo; format: cell-based, human
# SNB75 cells = assay: Cytotoxicity CellTiter-Glo; format: cell-based, human
# [1] = Maximum tolerated dose study: body weight, food consumption, moribundity, MTD
# Experimental: (§1) The mice used in MTD were given standard chow devoid of added folic acid (low folate diet) (See, Leamon C P et al., J. Pharmacol. Exp. Ther. 327: 918-925). […] Therefore we also designed a MTD study in mice treated with low folate diet. Food consumption on the day before injection (Day −1) was recorded and then it was monitored every other day. […] Blood for clinical chemistry was collected if possible. Liver, kidney and bone marrow were collected. One side of each tissue (except bone marrow) will be fixed in 4-10% formalin for future histology analysis, and the rest of tissue will be cut into pieces, snap frozen, and stored at −80° C. until analysis. Blood samples for clinical chemistry were centrifuged at 8000 rpm for 10 min at 4° C. within 1 hour of collection. Plasma was collected into 1.5 mL eppendorf tubes and stored at −80° C. until analysis. The measured parameters were alanine transaminase (ALT), aspartate transaminase (AST), alkaline phosphatase (ALP), total bilirubin, glucose, blood urea nitrogen (BUN), creatinine, and electrolytes. All experiments were housed in a virus-free, temperature controlled facility on a 12-h light-dark cycle.
# The concentration versus time course of total platinum followed a two-compartment model in the mice. […] In the maximum tolerated dose studies, we observed body weight reduction in all mice due to the low folate diet (FIG. 6).
# U-2 OS cells = assay: Cytotoxicity CellTiter-Glo; format: cell-based, human
# U87MG cells = assay: Cytotoxicity CellTiter-Glo; format: cell-based, human
# SHEP cells = assay: Cytotoxicity CellTiter-Glo; format: cell-based, human
# SLC19A1 = target: T1, SLC19A1 (Homo sapiens, UniProt P41440); assay: IC50 with and without folic acid, transporter SLC19A1 (Table 8); format: cell-based
# T1 sequence (P41440 1-591): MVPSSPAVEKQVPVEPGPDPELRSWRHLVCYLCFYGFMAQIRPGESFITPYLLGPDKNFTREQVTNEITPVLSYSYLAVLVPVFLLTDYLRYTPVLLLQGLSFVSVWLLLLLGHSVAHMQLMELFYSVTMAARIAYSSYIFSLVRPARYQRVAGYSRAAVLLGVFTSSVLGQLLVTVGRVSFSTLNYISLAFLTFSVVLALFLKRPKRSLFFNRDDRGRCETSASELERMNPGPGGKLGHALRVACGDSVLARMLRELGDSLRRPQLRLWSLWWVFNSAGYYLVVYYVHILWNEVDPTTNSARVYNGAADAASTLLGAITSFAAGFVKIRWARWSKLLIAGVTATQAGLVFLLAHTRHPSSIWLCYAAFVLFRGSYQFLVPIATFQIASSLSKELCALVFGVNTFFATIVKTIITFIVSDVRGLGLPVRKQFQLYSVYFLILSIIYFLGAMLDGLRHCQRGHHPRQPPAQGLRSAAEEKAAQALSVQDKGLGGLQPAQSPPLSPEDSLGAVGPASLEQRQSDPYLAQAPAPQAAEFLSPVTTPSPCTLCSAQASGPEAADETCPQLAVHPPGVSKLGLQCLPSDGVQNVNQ
# A2780-CP cells = assay: Cytotoxicity CellTiter-Glo; format: cell-based, human; conditions: read-out: IC50 (50% growth inhibition), Ovary, 72 hours
# A204 cells = assay: Cytotoxicity CellTiter-Glo; format: cell-based, human; conditions: A204, Rhabdomyosarcoma
# [2] = Maximum tolerated dose study: clinical chemistry evaluation (blood cell parameters, Table 6)
# Experimental: as §1
substance,measurement,setting,value
[Pt(DMSO)methotrexate(Cl)] [SM-69],IC50,"SNF539 cells; read-out: IC50 (50% growth inhibition), SNF539, Brain, 72 hours",1.2 ± 1.1 µM
same,IC50,"SNF539 cells; read-out: IC50 ± S.D. (50% growth inhibition), SF539, Brain - High grade, + 1 mM Folic Acid",13.4 ± 4.8 µM
same,IC50,"SNB75 cells; read-out: IC50 (50% growth inhibition), SNB75, Brain, 72 hours",6.1 ± 4.6 µM
same,IC50,"SNB75 cells; read-out: IC50 ± S.D. (50% growth inhibition), SNB75, Brain - High grade, + 1 mM Folic Acid",46.3 ± 20.2 µM
same,IC50,"SNB75 cells; read-out: IC50 ± S.D. (50% growth inhibition), SNB75, Brain - High grade, two independent experiments",8.7 ± 6.4 µM
same,body weight reduction compared with saline and vehicle treated,"[1]; 2.5 mg/kg once a week, low folate diet",similar
same,Body weight (% of vehicle) over 30-days,"[1]; 2.5, 5, 7.5 mpk",significant body weight loss
same,cumulative food consumption over 30-days,"[1]; 2.5, 5, 7.5 mpk, mouse model",dose-dependently alter food consumption
same,maximum tolerated dose,"[1]; i.v. once a week, mice on low folate diet",approximately 5 mg/kg
same,GI50,U-2 OS cells; Osteosarcoma,18 ± 15 µM
same,IC50,"U-2 OS cells; read-out: IC50 (50% growth inhibition), Osteosarcoma, 72 hours",18 ± 15 µM
same,IC50,"U87MG cells; read-out: IC50 (50% growth inhibition), Brain, 72 hours",2.2 ± 2 µM
same,IC50,"U87MG cells; read-out: IC50 ± S.D. (50% growth inhibition), Brain - Low grade, + 1 mM Folic Acid",26.2 ± 21.5 µM
same,IC50,"U87MG cells; read-out: IC50 ± S.D. (50% growth inhibition), Brain - Low grade, two independent experiments",3.7 ± 4.5 µM
same,GI50,SHEP cells; Neuroblastoma,2.7 ± 2.3 µM
same,IC50,"SHEP cells; read-out: IC50 (50% growth inhibition), Neuroblastoma, 72 hours",2.7 ± 2.3 µM
same,IC50,"SLC19A1; Folic acid (1 mM), read-out: IC50 with substrate or inhibitor",42.7 ± 4.11 µM
same,IC50,"SLC19A1; without substrate or inhibitor, read-out: IC50",13.5 ± 1.62 µM
same,IC50,A2780-CP cells,8.6 ± 2.1 µM
same,GI50,A204 cells,3.9 ± 3 µM
same,IC50,"A204 cells; read-out: IC50 (50% growth inhibition), 72 hours",3.9 ± 3 µM
same,RDWa,[2]; 2.5 mpk i.v. once a week,30.35
same,granulocytes (GRAN %),[2]; 2.5 mpk i.v. once a week,31.88%
same,granulocytes (GRAN),[2]; 2.5 mpk i.v. once a week,3.55
same,hematocrit (HCT),[2]; 2.5 mpk i.v. once a week,46.20
same,hemoglobin (HGB),[2]; 2.5 mpk i.v. once a week,16.20
same,lymphocytes (LYM %),[2]; 2.5 mpk i.v. once a week,60.70%
same,lymphocytes (LYM),[2]; 2.5 mpk i.v. once a week,6.65
same,mean corpuscular hemoglobin (MCH),[2]; 2.5 mpk i.v. once a week,15.65
same,mean corpuscular hemoglobin concentration (MCHC),[2]; 2.5 mpk i.v. once a week,35.08
same,mean corpuscular volume (MCV),[2]; 2.5 mpk i.v. once a week,44.68
same,mean platelet volume (MPV),[2]; 2.5 mpk i.v. once a week,6.68
same,monocytes (MONO %),[2]; 2.5 mpk i.v. once a week,7.43%
same,monocytes (MONO),[2]; 2.5 mpk i.v. once a week,0.83
same,platelet count (PLT),[2]; 2.5 mpk i.v. once a week,193.00
same,red blood cell count (RBC),[2]; 2.5 mpk i.v. once a week,10.34
same,red cell distribution width (RDW %),[2]; 2.5 mpk i.v. once a week,21.53%
same,white blood cell count (WBC),[2]; 2.5 mpk i.v. once a week,11.03
same,RDWa,[2]; 5 mpk i.v. once a week,30.10
same,granulocytes (GRAN %),[2]; 5 mpk i.v. once a week,33.28%
same,granulocytes (GRAN),[2]; 5 mpk i.v. once a week,3.55
same,hematocrit (HCT),[2]; 5 mpk i.v. once a week,47.65
same,hemoglobin (HGB),[2]; 5 mpk i.v. once a week,17.08
same,lymphocytes (LYM %),[2]; 5 mpk i.v. once a week,58.70%
same,lymphocytes (LYM),[2]; 5 mpk i.v. once a week,6.38
same,mean corpuscular hemoglobin (MCH),[2]; 5 mpk i.v. once a week,15.73
same,mean corpuscular hemoglobin concentration (MCHC),[2]; 5 mpk i.v. once a week,35.83
same,mean corpuscular volume (MCV),[2]; 5 mpk i.v. once a week,43.95
same,mean platelet volume (MPV),[2]; 5 mpk i.v. once a week,6.83
same,monocytes (MONO %),[2]; 5 mpk i.v. once a week,8.03%
same,monocytes (MONO),[2]; 5 mpk i.v. once a week,0.88
same,platelet count (PLT),[2]; 5 mpk i.v. once a week,182.25
same,red blood cell count (RBC),[2]; 5 mpk i.v. once a week,10.86
same,red cell distribution width (RDW %),[2]; 5 mpk i.v. once a week,21.93%
same,white blood cell count (WBC),[2]; 5 mpk i.v. once a week,10.80
same,RDWa,[2]; 7.5 mpk i.v. once a week,29.67
same,granulocytes (GRAN %),[2]; 7.5 mpk i.v. once a week,36.03%
same,granulocytes (GRAN),[2]; 7.5 mpk i.v. once a week,4.40
same,hematocrit (HCT),[2]; 7.5 mpk i.v. once a week,45.47
same,hemoglobin (HGB),[2]; 7.5 mpk i.v. once a week,16.23
same,lymphocytes (LYM %),[2]; 7.5 mpk i.v. once a week,56.53%
same,lymphocytes (LYM),[2]; 7.5 mpk i.v. once a week,7.07
same,mean corpuscular hemoglobin (MCH),[2]; 7.5 mpk i.v. once a week,15.63
same,mean corpuscular hemoglobin concentration (MCHC),[2]; 7.5 mpk i.v. once a week,35.73
same,mean corpuscular volume (MCV),[2]; 7.5 mpk i.v. once a week,43.80
same,mean platelet volume (MPV),[2]; 7.5 mpk i.v. once a week,6.40
same,monocytes (MONO %),[2]; 7.5 mpk i.v. once a week,7.43%
same,monocytes (MONO),[2]; 7.5 mpk i.v. once a week,0.93
same,platelet count (PLT),[2]; 7.5 mpk i.v. once a week,171.33
same,red blood cell count (RBC),[2]; 7.5 mpk i.v. once a week,10.38
same,red cell distribution width (RDW %),[2]; 7.5 mpk i.v. once a week,21.87%
same,white blood cell count (WBC),[2]; 7.5 mpk i.v. once a week,12.40
